Data taken from patent US9974306B2, “Herbicidal combinations for tolerant soybean cultures” (priority 2012, dated 2018).

What was measured:
GLXMA GM_W336 = assay: Post-emergence greenhouse treatment, visual rating of effect on W336 transgenic (HPPD inhibitor tolerant) soybean; format: in vivo; conditions: for Effect (%): GLXMA GM_W336
Procedure: (§1) The soybeans were grown under the same conditions as described above. The following three varieties were used in the tests:
(§2) 1) W336—Transgenic soybean plants comprising a chimeric gene encoding a W336 mutant HPPD protein of Pseudomonas fluorescens (U.S. Pat. No. 6,245,968) fused to the optimized transit peptide for chloroplast targeting (U.S. Pat. No. 5,510,471), and under the control of the 35S CaMV promoter (Odell et al., 1985, Nature 313: 810-812) fused to the 5′ enhancer sequence of TEV (Carrington and Freed, 1990, J. Virol. 64: 1590-1597), with as 3′ transcript termination and polyadenylation region that of the CaMV 35S gene (Sanfacon et al., 1991, Genes & Development 5:141-149), abbreviated as “W336 soybean plants” herein. 2) MERLIN—conventional 3) PROTINA—conventional
(§3) Two sets of soybeans reaching different growth stages at application time were prepared: one up to growth stage BBCH 11 (1-2 leaf stage) and the other up to BBCH 13 (3-4 leaf stage). Both soybean sets were treated at the same time (together with the weeds) but they were evaluated separately.
(§4) The applications were performed by post emergence treatments on the planted pots using a spray volume of 300 L water per hectare. The herbicides were applied alone and in combination as in the tables below.
(§5) The trial was conducted in the greenhouse ensuring optimal growing conditions.
(§6) The herbicidal effects were assessed 14 and 24 days following application by visual ratings comparing treated and untreated plants (0%=no effect to 100%=complete die-off).
(§7) The visual ratings are used to calculate interactions between treatments alone and combination treatments according to S. R. Colby, Weeds 15, pages 20 to 22 (1967).

GLXMA Protina = assay: Post-emergence greenhouse treatment, visual rating of effect on conventional soybean PROTINA; format: in vivo; conditions: for Effect (%): GLXMA Protina
Procedure: as §1, §2, §3, §4, §5, §6, §7

GLXMA Merlin = assay: Post-emergence greenhouse treatment, visual rating of effect on conventional soybean MERLIN; format: in vivo; conditions: for Effect (%): GLXMA Merlin, assessment 24 d
Procedure: as §1, §2, §3, §4, §5, §6, §7

BRAPP = assay: Post-emergence greenhouse treatment, visual rating of herbicidal effect; format: in vivo, Brachiaria platyphylla; conditions: for Effect (%): BRAPP
Procedure: (§8) Seeds of grass and broadleaf weeds were sown in pots (diameter: 8 cm) filled with a sandy loam soil. For the herbicide post-emergent treatment, the weeds were grown under optimal conditions up to a growth stage of BBCH 11 (1-2 leaf stage) to 14 (3-4 leaf stage) depending on species. The following weeds were used:
as §4, §5, §6, §7

SETFA = assay: as above; format: in vivo, Setaria faberi; conditions: 1-2 leaf
Procedure: as §8, §4, §5, §6, §7

SETVI = assay: as above; format: in vivo, Setaria viridis; conditions: 1-2 leaf; for Effect (%): SETVI, assessment 24 d; for Effect: 24 d
Procedure: as §8, §4, §5, §6, §7

SORHA = assay: as above; format: in vivo, Sorghum halepense
Procedure: as §8, §4, §5, §6, §7

BIDPI = assay: as above; format: in vivo, Bidens pilosa
Procedure: as §8, §4, §5, §6, §7

POLCO = assay: as above; format: in vivo, Polygonum convolvulus; conditions: for Effect (%): POLCO
Procedure: as §8, §4, §5, §6, §7

EPHHL = assay: as above; format: in vivo, Euphorbia heterophylla
Procedure: as §8, §4, §5, §6, §7

PHBPU = assay: as above; format: in vivo, Pharbitis purpurea
Procedure: as §8, §4, §5, §6, §7

[1] = 1-2 leaf, assessment 24 d, (A1) alone 2.5 g a.i./ha
[2] = 1-2 leaf, assessment 24 d, (A1) alone 5 g a.i./ha
[3] = 1-2 leaf, assessment 24 d, (A1) alone 10 g a.i./ha
[4] = 3-4 leaf, assessment 14 d, (A1) alone 5 g a.i./ha
[5] = 1-2 leaf, 14 d, 20 g a.i./ha alone
[6] = 1-2 leaf, 24 d, 5 g a.i./ha alone
[7] = 1-2 leaf, 24 d, 10 g a.i./ha alone
[8] = 1-2 leaf, 24 d, 20 g a.i./ha alone
[9] = 3-4 leaf, 14 d, 5 g a.i./ha alone
[10] = 3-4 leaf, 14 d, 20 g a.i./ha alone

CS(=O)(=O)c1ccc(C(=O)C2C(=O)CCCC2=O)c(Cl)c1COCC(F)(F)F [(A1), 2-{2-chloro-4-mesyl-3-[(2,2,2-trifluoroethoxy)methyl]benzoyl}cyclohexane-1,3-dione]
Effect (%) (GLXMA GM_W336; [1]): 15%
Effect (%) (GLXMA GM_W336; [2]): 15%
Effect (%) (GLXMA GM_W336; [3]): 15%
Effect (%) (GLXMA GM_W336; [4]): 20%
Effect (%) (GLXMA Protina; [1]): 65%
Effect (%) (GLXMA Protina; [2]): 75%
Effect (%) (GLXMA Protina; [4]): 55%
Effect (%) (GLXMA Merlin; 1-2 leaf, (A1) alone 5 g a.i./ha): 75%
Effect (%) (GLXMA Merlin; 1-2 leaf, (A1) alone 10 g a.i./ha): 80%
Effect (%) (BRAPP; [2]): 10%
Effect (%) (BRAPP; [3]): 10%
Effect (%) (BRAPP; [4]): 25%
Effect (%) (SETFA; SETFA, assessment 24 d, (A1) alone 2.5 g a.i./ha): 0%
Effect (%) (SETVI; (A1) alone 5 g a.i./ha): 40%
Effect (%) (SETVI; (A1) alone 10 g a.i./ha): 40%
Effect (%) (SORHA; SORHA, 1-2 leaf, assessment 24 d, (A1) alone 5 g a.i./ha): 20%
Effect (%) (BIDPI; BIDPI, 3-4 leaf, assessment 14 d, (A1) alone 5 g a.i./ha): 10%
Effect (%) (POLCO; [1]): 0%
Effect (%) (POLCO; [2]): 0%
Effect (%) (POLCO; [4]): 10%

CS(=O)(=O)c1ccc(C(=O)C2C(=O)CCCC2=O)c([N+](=O)[O-])c1 [(A2), 2-(4-mesyl-2-nitrobenzoyl)cyclohexane-1,3-dione]
Effect (GLXMA GM_W336; [5]): 20%
Effect (GLXMA GM_W336; [6]): 15%
Effect (GLXMA GM_W336; [7]): 15%
Effect (GLXMA GM_W336; [8]): 25%
Effect (GLXMA GM_W336; [9]): 15%
Effect (GLXMA GM_W336; [10]): 25%
Effect (GLXMA Protina; [5]): 45%
Effect (GLXMA Protina; [6]): 15%
Effect (GLXMA Protina; [7]): 20%
Effect (GLXMA Protina; [8]): 40%
Effect (GLXMA Protina; [10]): 50%
Effect (GLXMA Merlin; [9]): 30%
Effect (BRAPP; [5]): 50%
Effect (BRAPP; [7]): 25%
Effect (BRAPP; [8]): 35%
Effect (SETVI; 5 g a.i./ha alone): 0%
Effect (SORHA; [6]): 0%
Effect (SORHA; [9]): 0%
Effect (SORHA; [10]): 15%
Effect (BIDPI; [8]): 20%
Effect (EPHHL; [5]): 30%
Effect (EPHHL; [7]): 10%
Effect (EPHHL; [8]): 10%
Effect (PHBPU; [7]): 75%
Effect (POLCO; [7]): 20%
Effect (POLCO; [9]): 20%
Effect (POLCO; [10]): 65%

CS(=O)(=O)c1cc(C(F)(F)F)ccc1C(=O)c1cnoc1C1CC1 [(A4), (5-cyclopropyl-1,2-oxazol-4-yl)(α,α,α-trifluoro-2-mesyl-p-tolyl)methanone]
Effect (GLXMA GM_W336; 1-2 leaf, 24 d, 20 g a.i./ha): 10%
Effect (GLXMA GM_W336; 3-4 leaf, 14 d, 10 g a.i./ha): 10%
Effect (GLXMA Protina; 1-2 leaf, 24 d, 20 g a.i./ha): 75%
Effect (GLXMA Protina; 3-4 leaf, 14 d, 10 g a.i./ha): 35%
Effect (BRAPP; 3-4 leaf, 14 d, 10 g a.i./ha): 15%
Effect (SETVI; 20 g a.i./ha): 10%
Effect (SORHA; 1-2 leaf, 24 d, 20 g a.i./ha): 40%
Effect (PHBPU; 3-4 leaf, 14 d, 10 g a.i./ha): 40%

Cc1c(C(=O)c2cnn(C)c2O)ccc(S(C)(=O)=O)c1C1=NOCC1 [(A5), [3-(4,5-dihydro-1,2-oxazol-3-yl)-4-mesyl-o-tolyl](5-hydroxy-1-methylpyrazol-4-yl)methanone]
Effect (GLXMA GM_W336; 1-2 leaf, 24 d, 1.5 g a.i./ha): 15%
Effect (GLXMA GM_W336; 3-4 leaf, 14 d, 3 g a.i./ha): 30%
Effect (GLXMA GM_W336; 3-4 leaf, 24 d, 3 g a.i./ha): 30%
Effect (GLXMA Protina; 3-4 leaf, 14 d, 3 g a.i./ha): 50%
Effect (GLXMA Protina; 3-4 leaf, 24 d, 3 g a.i./ha): 50%
Effect (GLXMA Merlin; 1-2 leaf, 24 d, 1.5 g a.i./ha): 55%
Effect (SETFA; 24 d, 1.5 g a.i./ha): 30%
Effect (SORHA; 3-4 leaf, 14 d, 3 g a.i./ha): 15%
Effect (SORHA; 3-4 leaf, 24 d, 3 g a.i./ha): 10%
Effect (BIDPI; 3-4 leaf, 14 d, 3 g a.i./ha): 25%
Effect (BIDPI; 3-4 leaf, 24 d, 3 g a.i./ha): 10%
Effect (PHBPU; 1-2 leaf, 24 d, 1.5 g a.i./ha): 30%

COCCOCc1nc(C(F)(F)F)ccc1C(=O)C1=C(O)C2CCC(C2)C1=O (stereo not drawn) [(A6), 4-hydroxy-3-{2-[(2-methoxyethoxy)methyl]-6-(trifluoromethyl)-3-pyridylcarbonyl}bicyclo[3.2.1]oct-3-en-2-one]
Effect (GLXMA GM_W336; 1-2 leaf, 14 d, 5 g a.i./ha): 5%
Effect (GLXMA GM_W336; 3-4 leaf, 14 d, 10 g a.i./ha): 25%
Effect (GLXMA GM_W336; 3-4 leaf, 14 d, 20 g a.i./ha): 30%
Effect (GLXMA GM_W336; 3-4 leaf, 24 d, 10 g a.i./ha): 25%
Effect (GLXMA GM_W336; 3-4 leaf, 24 d, 20 g a.i./ha): 30%
Effect (GLXMA Protina; 1-2 leaf, 14 d, 5 g a.i./ha): 50%
Effect (GLXMA Protina; 3-4 leaf, 14 d, 10 g a.i./ha): 45%
Effect (GLXMA Protina; 3-4 leaf, 14 d, 20 g a.i./ha): 60%
Effect (GLXMA Merlin; 3-4 leaf, 24 d, 10 g a.i./ha): 50%
Effect (GLXMA Merlin; 3-4 leaf, 24 d, 20 g a.i./ha): 50%
Effect (BRAPP; 3-4 leaf, 14 d, 10 g a.i./ha): 15%
Effect (BRAPP; 3-4 leaf, 14 d, 20 g a.i./ha): 25%
Effect (BRAPP; 3-4 leaf, 24 d, 20 g a.i./ha): 15%
Effect (SETFA; 14 d, 5 g a.i./ha): 15%
Effect (SORHA; 1-2 leaf, 14 d, 5 g a.i./ha): 0%
Effect (BIDPI; 3-4 leaf, 24 d, 20 g a.i./ha): 30%
Effect (EPHHL; 3-4 leaf, 24 d, 10 g a.i./ha): 40%
Effect (POLCO; 3-4 leaf, 14 d, 10 g a.i./ha): 50%
Effect (POLCO; 3-4 leaf, 14 d, 20 g a.i./ha): 50%
Effect (POLCO; 3-4 leaf, 24 d, 10 g a.i./ha): 35%
